Assay results published in patent US20240158446A1, “CYCLIC COMPOUND HAVING SELECTIVE INHIBITORY ACTION ON KRAS OVER HRAS AND NRAS” (CHUGAI SEIYAKU KABUSHIKI KAISHA, priority 2021, published 2024).
pIC50, pKd: −log10 of the molar value. Where two headings read alike, the source gives them in different places.

What was measured:
[1] = system: human lung cancer strain NCI-H441;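 further: cell proliferation inhibition after four days measured by CellTiter-Glo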
[2] = target: GDP-bound NRAS wild-type protein (Homo sapiens, UniProt P01111); experiment: Binding to NRAS by surface plasmon resonance (SPR), Single Cycle Kinetics; conditions: for NRAS/KRAS (ratio of KD value for NRAS to KD value for KRAS): GDP-bound NRAS wild-type protein vs GDP-bound KRAS wild-type protein
Chain of GDP-bound NRAS wild-type protein (P01111 whole entry): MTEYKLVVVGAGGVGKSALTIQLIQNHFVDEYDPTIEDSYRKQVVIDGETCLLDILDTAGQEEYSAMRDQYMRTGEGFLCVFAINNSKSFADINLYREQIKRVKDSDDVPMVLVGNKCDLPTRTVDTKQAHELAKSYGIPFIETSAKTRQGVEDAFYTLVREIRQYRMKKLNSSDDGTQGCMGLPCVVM

[3] = target: GDP-bound KRAS wild-type protein (Homo sapiens, UniProt P01116); experiment: Binding to KRAS by surface plasmon resonance (SPR), Single Cycle Kinetics
Chain of GDP-bound KRAS wild-type protein (P01116 whole entry): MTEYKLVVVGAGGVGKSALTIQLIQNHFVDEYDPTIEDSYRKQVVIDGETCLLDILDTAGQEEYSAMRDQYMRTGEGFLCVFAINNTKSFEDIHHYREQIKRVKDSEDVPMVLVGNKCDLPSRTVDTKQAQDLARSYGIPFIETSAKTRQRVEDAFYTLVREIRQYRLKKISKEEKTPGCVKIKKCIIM

[4] = target: GDP-bound HRAS wild-type protein (Homo sapiens, UniProt P01112); experiment: Binding to HRAS by surface plasmon resonance (SPR), Single Cycle Kinetics; conditions: for HRAS/KRAS (ratio of KD value for HRAS to KD value for KRAS): GDP-bound HRAS wild-type protein vs GDP-bound KRAS wild-type protein
Chain of GDP-bound HRAS wild-type protein (P01112 whole entry): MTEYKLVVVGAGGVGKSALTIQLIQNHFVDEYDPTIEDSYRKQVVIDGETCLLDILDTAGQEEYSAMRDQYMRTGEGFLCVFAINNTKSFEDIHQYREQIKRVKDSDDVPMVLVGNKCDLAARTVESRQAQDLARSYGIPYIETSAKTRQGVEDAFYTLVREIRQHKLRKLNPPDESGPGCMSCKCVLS

[5] = SPR, Single Cycle Kinetics, 1:1 binding model, GDP-bound KRAS wild-type protein, read-out: KRAS KD
[6] = SPR, Single Cycle Kinetics, GDP-bound KRAS wild-type protein, read-out: KRAS KD

SMILES | pIC50 [1] | NRAS/KRAS (ratio of KD value for NRAS to KD value for KRAS) ([2]; SPR, KD ratio class) | pKd [3, 5] | HRAS/KRAS (ratio of KD value for HRAS to KD value for KRAS) ([4]; SPR, KD ratio class) | NRAS/KRAS (ratio of KD value for NRAS to KD value for KRAS) ([2]; SPR) | pKd [3, 6] | HRAS/KRAS (ratio of KD value for HRAS to KD value for KRAS) ([4]; SPR) | other results
CCO[C@@H]1C[C@H]2C(=O)NC3(CCCCC3)C(=O)N(C)[C@@H](C3CCCC3)C(=O)N(C)[C@H](C(=O)N(C)C)CC(=O)N(C)[C@@H](CC)C(=O)N[C@@H]([C@@H](C)CC)C(=O)N(C)CC(=O)N(C)[C@H]3C/C=C\CCN(C3=O)[C@@H](Cc3ccc(C(F)(F)F)cc3)C(=O)N(C)CC(=O)N[C@@H](CCc3cc(F)c(C(F)(F)F)c(F)c3)C(=O)N2C1 [PP1277] | 7.10 | A (a compound having 10 or more and less than 20 is denoted as A) | 9.60 | A (a compound having 10 or more and less than 20 is denoted as A) | – | – | – | –
CC[C@H](C)[C@@H]1NC(=O)[C@H](CC2CC2)N(C)C(=O)C[C@@H](C)N(C)C(=O)[C@H](C2CCCC2)N(C)C(=O)C2(CCC2)NC(=O)[C@H](CC(F)F)N(C)C(=O)[C@H](CCc2cc(F)c(C(F)(F)F)c(F)c2)NC(=O)CN(C)C(=O)[C@H](Cc2ccc(C(F)(F)F)cc2)N2CC/C=C\C[C@@H](C2=O)N(C)C(=O)CN(C)C1=O [PP1405] | 6.33 | A (a compound having 10 or more and less than 20 is denoted as A) | 8.07 | A (a compound having 10 or more and less than 20 is denoted as A) | – | – | – | –
CCC[C@H]1C(=O)N[C@@H]([C@@H](C)CC)C(=O)N(C2CC2)CC(=O)N(C)[C@H]2C/C=C\CCN(C2=O)[C@@H](Cc2ccc(C)cc2)C(=O)N(C)CC(=O)N[C@@H](CCc2cc(F)c(C(F)(F)F)c(F)c2)C(=O)N2C[C@H](OCC)C[C@H]2C(=O)N(C)C2(CCC2)C(=O)N(C)[C@@H](C2CCCC2)C(=O)N(C)[C@H](C(=O)N2CCCC2)CC(=O)N1C [PP3113, (2S,8S,12R,14S,20S,23S,27S,30S,36S,38Z)-20-cyclopentyl-32-cyclopropyl-8-[2-[3,5-difluoro-4-(trifluoromethyl)phenyl]ethyl]-12-ethoxy-4,16,19,22,26,35-hexamethyl-30-[(1S)-1-methylpropyl]-27-propyl-2-(p-tolylmethyl)-23-(pyrrolidine-1-carbonyl)spiro[1,4,7,10,16,19,22,26,29,32,35-undecazatricyclo[34.5.1.0^10,14]dotetracont-38-ene-17,1′-cyclobutane]-3,6,9,15,18,21,25,28,31,34,42-undecone] | – | – | – | – | A (a compound having 10 or more and less than 20 is denoted as A) | 9.77 | A (a compound having 10 or more and less than 20 is denoted as A) | pIC50 ([1]; read-out: NCI-H441 cell proliferation inhibitory activity, 50% proliferation inhibitory concentration (IC50 value), NCI-H441, four days, CellTiter-Glo): 8.21; ratio of the KD value with respect to GDP-bound NRAS wild-type protein to the KD value with respect to KRAS ([2]; SPR, KD(NRAS)/KD(KRAS)): A (a compound having 10 or more and less than 20 is denoted as A); pKd ([3]; SPR, Single Cycle Kinetics, 1:1 binding model, read-out: KD value with respect to GDP-bound KRAS wild-type protein): 9.77; ratio of the KD value with respect to GDP-bound HRAS wild-type protein to the KD value with respect to KRAS ([4]; SPR, KD(HRAS)/KD(KRAS)): A (a compound having 10 or more and less than 20 is denoted as A)
CCO[C@@H]1C[C@H]2C(=O)NC3(CCC3)C(=O)N(C)[C@@H](C3CCCC3)C(=O)N(C)[C@H](C(=O)N3CCOCC3)CC(=O)N(C)[C@@H](COC)C(=O)N[C@@H]([C@@H](C)CC)C(=O)N(C)CC(=O)N(C)[C@H]3CCCCCN(C3=O)[C@@H](Cc3ccc(F)cc3)C(=O)N(C)CC(=O)N[C@@H](CCc3cc(F)c(C(F)(F)F)c(F)c3)C(=O)N2C1 [PP1179] | 7.24 | – | – | – | B (a compound having 3 or more and less than 10 is denoted as B) | 10.04 | B (a compound having 3 or more and less than 10 is denoted as B) | –
CC[C@H](C)[C@@H]1NC(=O)[C@H](CC)N(C)C(=O)C[C@@H](C(=O)N2CCOCC2)N(C)C(=O)[C@H](C2CCCC2)N(C)C(=O)C2(CCCC2)NC(=O)[C@@H]2CCCN2C(=O)[C@H](CCc2cc(F)c(C(F)(F)F)c(F)c2)NC(=O)CN(C)C(=O)[C@H](Cc2ccc(C(F)(F)F)cc2)N2C[C@H](C)[C@H](C)C[C@@H](C2=O)N(C)C(=O)CN(C)C1=O [PP1365] | 8.38 | A (a compound having 10 or more and less than 20 is denoted as A) | 9.89 | B (a compound having 3 or more and less than 10 is denoted as B) | – | – | – | –
CCO[C@@H]1C[C@H]2C(=O)NC3(CCC3)C(=O)N(C)[C@@H](C3CCCC3)C(=O)N(C)[C@H](C(=O)N3CCOCC3)CC(=O)N(C)[C@@H](CC3CC3)C(=O)N[C@@H]([C@@H](C)CC)C(=O)N(C)CC(=O)N(C)[C@H]3C/C=C\CCN(C3=O)[C@@H](Cc3ccc(C(F)(F)F)cc3)C(=O)N(C)CC(=O)N[C@@H](CCc3cc(F)c(C(F)(F)F)c(F)c3)C(=O)N2C1 [PP1283] | 7.37 | AA (a compound having 20 or more is denoted as AA) | 9.70 | A (a compound having 10 or more and less than 20 is denoted as A) | – | – | – | –
CCCOC[C@H]1C(=O)N[C@@H]([C@@H](C)CC)C(=O)N(C)CC(=O)N(C)[C@H]2C/C=C\CCN(C2=O)[C@@H](Cc2ccc(C)cc2)C(=O)N(C)CC(=O)N[C@@H](CCc2ccc(Cl)c(Cl)c2)C(=O)N2C[C@H](OCC)C[C@H]2C(=O)NC2(CC(C)(C)C2)C(=O)N(C)[C@@H](CC(C)(C)C)C(=O)N(C)[C@H](C(=O)N(C)C)CC(=O)N1C [PP2716] | 7.86 | – | – | – | – | – | – | NRAS/KRAS (ratio of KD value with respect to GDP-bound NRAS wild-type protein to KD value with respect to KRAS) ([2]; SPR KD ratio NRAS/KRAS, class symbols): A (a compound having 10 or more and less than 20 is denoted as A); pKd ([3]; SPR Single Cycle Kinetics, GDP-bound KRAS wild-type protein, 1:1 binding model, read-out: KRAS KD): 9.47; HRAS/KRAS (ratio of KD value with respect to GDP-bound HRAS wild-type protein to KD value with respect to KRAS) ([4]; SPR KD ratio HRAS/KRAS, class symbols): A (a compound having 10 or more and less than 20 is denoted as A)
CCO[C@@H]1C[C@H]2C(=O)NC3(CCC3)C(=O)N(C)[C@@H](C3CCCC3)C(=O)N(C)[C@H](C(=O)N(C)C)CC(=O)N(C)[C@@H](CC)C(=O)N[C@@H]([C@@H](C)CC)C(=O)N(C)CC(=O)N(C)[C@H]3C/C=C\CCN(C3=O)[C@@H](Cc3ccc(C(F)(F)F)cc3)C(=O)N(C)CC(=O)N[C@@H](CCc3ccc(C(F)(F)F)c(OC)c3)C(=O)N2C1 [PP1243, (2S,8S,12R,14S,20S,23S,27S,30S,36S,38Z)-20-cyclopentyl-12-ethoxy-27-ethyl-8-[2-[3-methoxy-4-(trifluoromethyl)phenyl]ethyl]-N,N,4,19,22,26,32,35-octamethyl-30-[(1S)-1-methylpropyl]-3,6,9,15,18,21,25,28,31,34,42-undecaoxo-2-[[4-(trifluoromethyl)phenyl]methyl]spiro[1,4,7,10,16,19,22,26,29,32,35-undecazatricyclo[34.5.1.0^10,14]dotetracont-38-ene-17,1′-cyclobutane]-23-carboxamide] | 7.88 | A (a compound having 10 or more and less than 20 is denoted as A) | 10.24 | A (a compound having 10 or more and less than 20 is denoted as A) | – | – | – | –
CC[C@H](C)[C@@H]1NC(=O)[C@H](COC)N(C)C(=O)C[C@@H](C(=O)N(C)CC)N(C)C(=O)[C@H](C2CCCC2)N(C)C(=O)C2(CC(C)(C)C2)NC(=O)[C@@H]2C[C@H](C)CN2C(=O)[C@H](CCc2cc(F)c(C(F)(F)F)c(F)c2)NC(=O)CN(C)C(=O)[C@H](Cc2ccc(C)cc2)N2CC/C=C\C[C@@H](C2=O)N(C)C(=O)CN(C)C1=O [PP2437] | 7.73 | – | – | – | A (a compound having 10 or more and less than 20 is denoted as A) | 9.92 | A (a compound having 10 or more and less than 20 is denoted as A) | –
C=CC[C@H]1C(=O)N[C@@H]([C@@H](C)CC)C(=O)N(C)CC(=O)N(C)[C@H]2C/C=C\CCN(C2=O)[C@@H](CC2CCCCC2)C(=O)N(C)CC(=O)N[C@@H](CCc2cc(F)c(C(F)(F)F)c(F)c2)C(=O)N2C[C@H](OCC)C[C@H]2C(=O)NC2(CCC2)C(=O)N(C)[C@@H](C2CCCC2)C(=O)N(C)[C@H](C(=O)N(C)C)CC(=O)N1C [PP1468, (2S,8S,12R,14S,20S,23S,27S,30S,36S,38Z)-27-allyl-2-(cyclohexylmethyl)-20-cyclopentyl-8-[2-[3,5-difluoro-4-(trifluoromethyl)phenyl]ethyl]-12-ethoxy-N,N,4,19,22,26,32,35-octamethyl-30-[(1S)-1-methylpropyl]-3,6,9,15,18,21,25,28,31,34,42-undecaoxo-spiro[1,4,7,10,16,19,22,26,29,32,35-undecazatricyclo[34.5.1.0^10,14]dotetracont-38-ene-17,1′-cyclobutane]-23-carboxamide] | 8.02 | A (a compound having 10 or more and less than 20 is denoted as A) | 9.92 | A (a compound having 10 or more and less than 20 is denoted as A) | – | – | – | –
